# Source: patent US9730906B2, “α-derivatives of cis-monounsaturated fatty acids for use as medicines” (UNIVERSITAT DE LES ILLES BALEARS, priority 2008, dated 2017)
# Experiments:
# [1] = system: human brain cancer (SF767), human lung cancer cells (A549), human pancreas cancer cells (BXPC3); experiment: Na-OHOD alone and combined with anti-tumour pharmaceuticals in immune-deprived mice with human tumours; assay type: in vivo; settings: Na-OHOD 600 mg/kg
# Protocol: FIG. 8A. Effect of Na-OHOD (sodium salt of OHOD) and combinations with various pharmaceuticals: temozolomide (TMZ), erlotinib, gemcitabine and cisplatin (cis-Pt) on various types of human cancers in models. Effect of treatments with vehicle (Control), temozolomide (TMZ, 80 mg/kg), Na-OHOD (OHOD, 600 mg/kg) and TMZ plus Na-OHOD (simultaneously at the same doses) for 60 days in immune-deprived mice infected with human brain cancer (SF767).
# FIG. 8B. Effect of Na-OHOD (sodium salt of OHOD) and combinations with various pharmaceuticals: temozolomide (TMZ), erlotinib, gemcitabine and cisplatin (cis-Pt) on various types of human cancers in models. Idem, with Na-OHOD (OHOD, 600 mg/kg), erlotinib (Erlotinib, 40 mg/kg), cisplatin (cis-Pt, 100 mg/kg), plus erlotinib (OHO Er) or Na-OHOD plus cisplatin (OHO Pt) in nude mice infected with human lung cancer cells (A549).
# FIG. 8C. Effect of Na-OHOD (sodium salt of OHOD) and combinations with various pharmaceuticals: temozolomide (TMZ), erlotinib, gemcitabine and cisplatin (cis-Pt) on various types of human cancers in models. Idem with Na-OHOD (OHOD, 600 mg/kg), Gemcitabine (Gemcitab, 40 mg/kg) or Na-OHOD plus Gemcitabine (OHO Gem) using the same doses in nude mice infected with human pancreas cancer cells (BXPC3). […]
# A172 = experiment: Effect of OHOD on cancer cells in culture (Table 2); assay type: cell-based, human; design: key to Anti-tumour effect: + [inhibition of growth]; ++ [total halt of growth]; +++ [total removal of tumour cells]; key to Mechanism of action: P [anti-proliferative]; D [differentiation]; A [apoptosis]; settings: A172, Glioma
# Protocol: (§1) Also, a series of α-derivatives of cis-monounsaturated fatty acids were used to investigate their effectiveness in cancer treatment. Two types of experiment were performed. Firstly, the dependency of the anti-tumour effect on concentration was investigated. To perform these experiments, human lung cancer cells (A549) were cultivated in RPMI medium, supplemented with 10% foetal bovine […], 10 mM Hepes (pH 7.4), 2 mM glutamine, 2 g/l bicarbonate, 1 g/l glucose, 100 units/ml penicillin, 0.1 mg/ml streptomycin, 0.25 μg/ml Amphotericin B, at 37° C. and in the presence of 5% CO2. In a first experimental series, these cells were treated with various concentrations (0-400 μM) of OHOD and MOD11 and the number of cells was determined by flow cytometry (FIG. 3A). […] In a second series, the anti-tumour effectiveness on A549 lung cancer cells was investigated at a single concentration (150 μM) and a time of 48 hours (FIG. 3B). […] Obviously, among the previous molecules, some lacked both modifications on the α-carbon and the double bond in cis configuration (EO, HDO, ODO) and had no therapeutic effect.
# (§2) In a second experimental series, designed to discover whether these molecules are effective in treatment of different types of tumours, the effect of OHOD at various concentrations on human cells of different types of cancer was studied. These experiments were performed as described before, except that the M220 and HT-29 cell lines were cultured in DMEM medium and the MDA-MB-231 line was incubated in Leibowitz L-15 medium supplemented with 15% foetal bovine […]. […] Where the nature of the tumour process requires, application can be topical (use on the skin of active products for the treatment of melanoma and other cutaneous abnormalities of cancerous nature), which can be considered as cosmetic treatments when attempts are made to correct aesthetic defects.
# T98G = experiment: as above; assay type: cell-based, human; design: key to Anti-tumour effect: + [inhibition of growth]; ++ [total halt of growth]; +++ [total removal of tumour cells]; key to Mechanism of action: P [anti-proliferative]; D [differentiation]; A [apoptosis]; settings: Glioma
# Protocol: as §1, §2
# U87-MG = experiment: as above; assay type: cell-based, human; design: key to Anti-tumour effect: + [inhibition of growth]; ++ [total halt of growth]; +++ [total removal of tumour cells]; key to Mechanism of action: P [anti-proliferative]; D [differentiation]; A [apoptosis]; settings: Glioma
# Protocol: as §1, §2
# HeLa = experiment: as above; assay type: cell-based, human; design: key to Anti-tumour effect: + [inhibition of growth]; ++ [total halt of growth]; +++ [total removal of tumour cells]; key to Mechanism of action: P [anti-proliferative]; D [differentiation]; A [apoptosis]; settings: Cervix
# Protocol: as §1, §2
# M220 = experiment: as above; assay type: cell-based, human; design: key to Anti-tumour effect: + [inhibition of growth]; ++ [total halt of growth]; +++ [total removal of tumour cells]; key to Mechanism of action: P [anti-proliferative]; D [differentiation]; A [apoptosis]; settings: M220, Pancreas
# Protocol: as §1, §2
# HT-29 = experiment: as above; assay type: cell-based, human; design: key to Anti-tumour effect: + [inhibition of growth]; ++ [total halt of growth]; +++ [total removal of tumour cells]; key to Mechanism of action: P [anti-proliferative]; D [differentiation]; A [apoptosis]; settings: HT-29, Colon
# Protocol: as §1, §2
# LNcaP = experiment: as above; assay type: cell-based, human; design: key to Anti-tumour effect: + [inhibition of growth]; ++ [total halt of growth]; +++ [total removal of tumour cells]; key to Mechanism of action: P [anti-proliferative]; D [differentiation]; A [apoptosis]; settings: Prostate
# Protocol: as §1, §2
# L-1210 = experiment: as above; assay type: cell-based, human; design: key to Anti-tumour effect: + [inhibition of growth]; ++ [total halt of growth]; +++ [total removal of tumour cells]; key to Mechanism of action: P [anti-proliferative]; D [differentiation]; A [apoptosis]; settings: L-1210, Lym-Leukaemia
# Protocol: as §1, §2
SMILES,"anti-tumour effectiveness of Na-OHOD alone vs temozolomide, erlotinib, gemcitabine, cisplatin [1]",Anti-tumour effect (A172),Mechanism of action (A172),Anti-tumour effect (T98G),Mechanism of action (T98G),Anti-tumour effect (U87-MG),Mechanism of action (U87-MG),Anti-tumour effect (HeLa),Mechanism of action (HeLa),Anti-tumour effect (M220),Mechanism of action (M220),Anti-tumour effect (HT-29),Mechanism of action (HT-29),Anti-tumour effect (LNcaP),Mechanism of action (LNcaP),Anti-tumour effect (L-1210),Mechanism of action (L-1210)
CCCCCCCC/C=C\CCCCCCC(O)C(=O)[O-].[Na+] (centres unmarked) [Na-OHOD],more effective,,,,,,,,,,,,,,,,
"CCCCCCCC/C=C\CCCCCCC(O)C(=O)O (stereo not drawn) [OHOD, α-Hydroxy-cis-Δ9-octadecenoic]",,++,D,+++,D,+++,D,+++,A,++,A,++,A,+++,A,+++,A
